The supplement of paper PMC10307832

What was measured:
Experiment in all cases: relative viability (nuclei count vs DMSO), 5 days (fraction); higher = more cells survive
IU1-47 + Phenformin = compound: CC1=CC(=C(N1C2=CC=C(C=C2)Cl)C)C(=O)CN3CCCCC3 [IU1-47] + N=C(N)NC(=N)NCCc1ccccc1 [Phenformin] (partner 250 µM)
Summary of the method: (§1)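 Lung cancer cell lines in 1536-well plates got either a single drug or a fixed anchor-drug dose together with five library-drug doses (not always all listed) in √10 steps, by pin tool, on the day after seeding. Nuclei were counted after 5 days, and relative viability is the treated-to-vehicle ratio of nuclei counts. Values are medians of duplicate plates.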

IU1-47 + Pemetrexed = compound: CC1=CC(=C(N1C2=CC=C(C=C2)Cl)C)C(=O)CN3CCCCC3 [IU1-47] + Nc1nc2[nH]cc(CCc3ccc(C(=O)N[C@@H](CCC(=O)O)C(=O)O)cc3)c2c(=O)[nH]1 [Pemetrexed] (partner 0.2 µM)
Summary of the method: as §1

IU1-47 + Decitabine = compound: CC1=CC(=C(N1C2=CC=C(C=C2)Cl)C)C(=O)CN3CCCCC3 [IU1-47] + Nc1ncn([C@H]2C[C@H](O)[C@@H](CO)O2)c(=O)n1 [Decitabine] (partner 2 µM)
Summary of the method: as §1

FG-4592 + Linsitinib = compound: Cc1nc(C(=O)NCC(=O)O)c(O)c2ccc(Oc3ccccc3)cc12 [FG-4592] + C[C@]1(O)C[C@@H](c2nc(-c3ccc4ccc(-c5ccccc5)nc4c3)c3c(N)nccn32)C1 [Linsitinib] (partner 1 µM)
Summary of the method: as §1

Question: UMC-11 was tested. Which relative viability (IU1-47 + Phenformin; first compound 0.08 µM) did it give?
Answer: The relative viability was 0.315.

Question: And the relative viability (IU1-47 + Phenformin; first compound 0.253 µM)?
Answer: The relative viability was 0.326.

Question: And the relative viability (IU1-47 + Phenformin; first compound 0.8 µM)?
Answer: The relative viability was 0.322.

Question: What about the relative viability (IU1-47 + Phenformin; first compound 2.53 µM) of the same cell line?
Answer: Its relative viability is 0.349.

Question: What about the relative viability (IU1-47 + Phenformin; first compound 8 µM) of the same cell line?
Answer: The relative viability was 0.367.

Question: And the relative viability (IU1-47 + Pemetrexed; first compound 0.08 µM)?
Answer: The relative viability was 0.777.

Question: What about the relative viability (IU1-47 + Pemetrexed; first compound 0.253 µM) of the same cell line?
Answer: The relative viability was 0.716.

Question: And the relative viability (IU1-47 + Pemetrexed; first compound 0.8 µM)?
Answer: The relative viability was 0.811.

Question: And the relative viability (IU1-47 + Pemetrexed; first compound 2.53 µM)?
Answer: Its relative viability is 0.903.

Question: And the relative viability (IU1-47 + Pemetrexed; first compound 8 µM)?
Answer: The relative viability was 0.796.

Question: What about the relative viability (IU1-47 + Decitabine; first compound 0.08 µM) of the same cell line?
Answer: Its relative viability is 0.664.

Question: And the relative viability (IU1-47 + Decitabine; first compound 0.253 µM)?
Answer: Its relative viability is 0.622.

Question: What about the relative viability (IU1-47 + Decitabine; first compound 0.8 µM) of the same cell line?
Answer: Its relative viability is 0.571.

Question: What about the relative viability (IU1-47 + Decitabine; first compound 2.53 µM) of the same cell line?
Answer: The relative viability was 0.581.

Question: What about the relative viability (IU1-47 + Decitabine; first compound 8 µM) of the same cell line?
Answer: Its relative viability is 0.717.

Question: And the relative viability (FG-4592 + Linsitinib; first compound 0.08 µM)?
Answer: The relative viability was 0.974.

Question: And the relative viability (FG-4592 + Linsitinib; first compound 0.253 µM)?
Answer: Its relative viability is 0.93.

Question: And the relative viability (FG-4592 + Linsitinib; first compound 0.8 µM)?
Answer: The relative viability was 0.933.

Question: And the relative viability (FG-4592 + Linsitinib; first compound 2.53 µM)?
Answer: Its relative viability is 1.06.

Question: What about the relative viability (FG-4592 + Linsitinib; first compound 8 µM) of the same cell line?
Answer: The relative viability was 0.87.
